Reference: patent US20260092057A1, “BCL-XL/BCL-2 DEGRADERS AND USES THEREOF” (Kymera Therapeutics, Inc., priority 2022, published 2026)
Where two headings read alike, the source gives them in different places.

Columns and labels:
MOLT-4 cells = test: CTG (CellTiter-Glo) cell viability assay, MOLT-4; type: cell-based; settings: MOLT-4, 3 day, read-out: CTG Cell Viability Assay - MOLT-4 3 day: Average external-IC50
Method: (§1) Compound-mediated viability effect on MOLT-4 and Caki-2 was quantitatively determined using the CellTiter-Glo® Luminescent Cell Viability Assay kit from Promega (Catalog number G7570) following manufacturer's recommended procedures. Briefly, MOLT-4 and Caki-2 cells were seeded into 384 well plates (Grenier Bio-One, Catalog number 781080) with a density of 10,000 cells per well. Compounds were then added to the assay plate with final top concentration of 10 µM and 1:3 dilution series with total of 9 doses. The final DMSO concentration is normalized to 0.2%. The assay plates were incubated at 37° C. for 3 days under 5% CO2. Then the assay plate was equilibrated at room temperature for 10 minutes. To determine cell viability, 30 uL CellTiter Glo reagent was added to each well and the assay plate was centrifuged at 1000 rpm for 30 second, incubated at room temperature for 10 min, and analyzed by detecting the luminescence using a multimode plate reader (EnVision 2105, PerkinElmer). The data was then analyzed by software Prism 7.0 from GraphPad and the dose response curves are fit using a three-parameter logistic equation to calculate IC50.
(§2) The letter codes for MOLT-4 IC50 include: A (<0.1 μM); B (0.1-1.0 μM); C (>1.0-3.0 μM); and D (>3.0 μM). The letter codes for Caki-2 IC50 include: A (<5 μM); B (5-10 μM); C (>10-30.0 μM); and D (>30.0 μM).

Caki-2 cells = test: CTG (CellTiter-Glo) cell viability assay, Caki-2; type: cell-based; settings: Caki-2, 3-day, read-out: CTG Chempartner/PHA- Caki-2 3-day: Average external-IC50
Method: as §1, §2

Compound | IC50 (MOLT-4 cells; Homo sapiens, MOLT-4, 72 h) | IC50 (Caki-2 cells; Homo sapiens, CAKI-2, 72 h) | IC50 (MOLT-4 cells) | IC50 (Caki-2 cells)
Cc1ncsc1-c1ccc([C@H](C)NC(=O)[C@@H]2C[C@@H](O)CN2C(=O)[C@@H](NC(=O)CCCCCC(=O)N2CCN(CC[C@H](CSc3ccccc3)Nc3ccc(S(=O)(=O)NC(=O)c4ccc(N5CCC6(CC5)CC(N5CCC[C@H]5c5ccccc5C5CC5)C6)cc4)cc3S(=O)(=O)C(F)(F)F)CC2)C(C)(C)C)cc1 [I-88] | 1000 to 3000 nM | > 30000 nM |  | 
Cc1ncsc1-c1ccc([C@H](C)NC(=O)[C@@H]2C[C@@H](O)CN2C(=O)[C@@H](NC(=O)C2CCC3(CC2)CCN(CCCNc2ccc(S(=O)(=O)NC(=O)c4ccc(N5CCN(CC6=C(c7ccc(Cl)cc7)CC(C)(C)CC6)CC5)cc4Oc4cnc5[nH]ccc5c4)cc2S(=O)(=O)C(F)(F)F)CC3)C(C)(C)C)cc1 [I-116] | > 3000 nM | > 30000 nM |  | 
Cc1ncsc1-c1ccc([C@H](C)NC(=O)[C@@H]2C[C@@H](O)CN2C(=O)[C@@H](NC(=O)CCCCCC(=O)N(C)CC[C@H](CSc2ccccc2)Nc2ccc(S(=O)(=O)NC(=O)c3ccc(N4CCC(C(O)c5ccccc5-c5ccc(Cl)cc5)CC4)cc3)cc2S(=O)(=O)C(F)(F)F)C(C)(C)C)cc1 (stereo partly shown) [I-71] | 1000 to 3000 nM | 10000 to 30000 nM |  | 
Cc1ncsc1-c1ccc([C@H](C)NC(=O)[C@@H]2C[C@@H](O)CN2C(=O)[C@@H](NC(=O)CCCCCC(=O)N(C)CC[C@H](CSc2ccccc2)Nc2ccc(S(=O)(=O)NC(=O)c3ccc(N4CCC([C@H](O)c5ccccc5-c5ccc(Cl)cc5)CC4)cc3)cc2S(=O)(=O)C(F)(F)F)C(C)(C)C)cc1 [I-73] | > 3000 nM | > 30000 nM |  | 
Cc1ncsc1-c1ccc([C@H](C)NC(=O)[C@@H]2C[C@@H](O)CN2C(=O)[C@@H](NC(=O)CCCCCN(C)CCCNc2ccc(S(=O)(=O)NC(=O)c3ccc(N4CCC([C@@H](O)c5ccccc5-c5ccc(Cl)cc5)CC4)cc3Oc3cnc4[nH]ccc4c3)cc2S(=O)(=O)C(F)(F)F)C(C)(C)C)cc1 [I-66] | > 3000 nM | > 30000 nM |  | 
Cc1ncsc1-c1ccc([C@H](C)NC(=O)[C@@H]2C[C@@H](O)CN2C(=O)[C@@H](NC(=O)CCCCCC(=O)N2CCN(C[C@]3(C)CCC(c4ccc(Cl)cc4)=C(CN4CCN(c5ccc(C(=O)NS(=O)(=O)c6ccc(NCCCN7CCOCC7)c(S(=O)(=O)C(F)(F)F)c6)c(Oc6cnc7[nH]ccc7c6)c5)CC4)C3)CC2)C(C)(C)C)cc1 [I-132] |  |  | 100 to 1000 nM | > 30000 nM
Cc1ncsc1-c1ccc([C@H](C)NC(=O)[C@@H]2C[C@@H](O)CN2C(=O)[C@@H](NC(=O)CCCCCC(=O)N(C)CC[C@H](CSc2ccccc2)Nc2ccc(S(=O)(=O)NC(=O)c3ccc(N4CCC([C@@H](O)c5ccccc5-c5ccc(Cl)cc5)CC4)cc3)cc2S(=O)(=O)C(F)(F)F)C(C)(C)C)cc1 [I-72] | 1000 to 3000 nM | 10000 to 30000 nM |  | 
Cc1ncsc1-c1ccc([C@H](C)NC(=O)[C@@H]2C[C@@H](O)CN2C(=O)[C@@H](NC(=O)CCCC(=O)N2CCN(CCCNc3ccc(S(=O)(=O)NC(=O)c4ccc(N5CCC([C@@H](O)c6ccccc6-c6ccc(Cl)cc6)CC5)cc4Oc4cnc5[nH]ccc5c4)cc3S(=O)(=O)C(F)(F)F)CC2)C(C)(C)C)cc1 (single isomer, unassigned) [I-59] | > 3000 nM | > 30000 nM |  | 
Cc1ncsc1-c1ccc([C@H](C)NC(=O)[C@@H]2C[C@@H](O)CN2C(=O)[C@@H](NC(=O)CCCC(=O)N2CCN(CCCNc3ccc(S(=O)(=O)NC(=O)c4ccc(N5CCN(CC6=C(c7ccc(Cl)cc7)CC(C)(C)CC6)CC5)cc4Oc4cnc5[nH]ccc5c4)cc3S(=O)(=O)C(F)(F)F)CC2)C(C)(C)C)cc1 [I-78] | > 3000 nM | > 30000 nM |  | 
COc1ccc(Oc2cc(N3CCN(CC4=C(c5ccc(Cl)cc5)CC(C)(C)CC4)CC3)ccc2C(=O)NS(=O)(=O)c2ccc(NCCCN3CCN(C(=O)CCCCCC(=O)N[C@H](C(=O)C4C[C@H](O)C[C@H]4C(=O)C[C@@H](C)c4ccc(-c5scnc5C)cc4)C(C)(C)C)CC3)c(S(=O)(=O)C(F)(F)F)c2)cc1 (stereo partly shown) [I-136] | 100 to 1000 nM | > 30000 nM |  | 
Cc1ncsc1-c1ccc([C@H](C)NC(=O)[C@@H]2C[C@@H](O)CN2C(=O)[C@@H](NC(=O)CCCCCC(=O)N(C)CCCNc2ccc(S(=O)(=O)NC(=O)c3ccc(N4CCC([C@H](O)c5ccccc5-c5ccc(Cl)cc5)CC4)cc3Oc3cnc4[nH]ccc4c3)cc2S(=O)(=O)C(F)(F)F)C(C)(C)C)cc1 (single isomer, unassigned) [I-58] | 1000 to 3000 nM | > 30000 nM |  | 
Cc1ncsc1-c1ccc([C@H](C)NC(=O)[C@@H]2C[C@@H](O)CN2C(=O)[C@@H](NC(=O)CCCCCC(=O)NCCCNc2ccc(S(=O)(=O)NC(=O)c3ccc(N4CCN(Cc5ccccc5-c5ccc(Cl)cc5)CC4)cc3Oc3cnc4[nH]ccc4c3)cc2S(=O)(=O)C(F)(F)F)C(C)(C)C)cc1 [I-62] | > 3000 nM | > 30000 nM |  | 
Cc1ncsc1-c1ccc([C@H](C)NC(=O)[C@@H]2C[C@@H](O)CN2C(=O)[C@@H](NC(=O)CCCc2ccc(NCCNc3ccc(S(=O)(=O)NC(=O)c4ccc(N5CCN(CC6=C(c7ccc(Cl)cc7)CC(C)(C)CC6)CC5)cc4Oc4cnc5[nH]ccc5c4)cc3S(=O)(=O)C(F)(F)F)cc2)C(C)(C)C)cc1 [I-101] | > 3000 nM | > 30000 nM |  | 
Cc1ncsc1-c1ccc([C@H](C)NC(=O)[C@@H]2C[C@@H](O)CN2C(=O)[C@@H](NC(=O)CCCCCC(=O)N2CC3(CN(CCCNc4ccc(S(=O)(=O)NC(=O)c5ccc(N6CCN(CC7=C(c8ccc(Cl)cc8)CC(C)(C)CC7)CC6)cc5Oc5cnc6[nH]ccc6c5)cc4S(=O)(=O)C(F)(F)F)C3)C2)C(C)(C)C)cc1 [I-107] | 100 to 1000 nM | > 30000 nM |  | 
Cc1ncsc1-c1ccc([C@H](C)NC(=O)[C@@H]2C[C@@H](O)CN2C(=O)[C@@H](NC(=O)CCCCC(=O)N2C[C@H]3C[C@@H]2CN3Cc2ccc(-c3ccc(Cl)cc3)c(CN3CCN(c4ccc(C(=O)NS(=O)(=O)c5ccc(N[C@H](CCN(C)C)CSc6ccccc6)c([N+](=O)[O-])c5)cc4)CC3)c2)C(C)(C)C)cc1 [I-16] | > 3000 nM | > 30000 nM |  | 
Cc1ncsc1-c1ccc([C@H](C)NC(=O)[C@@H]2C[C@@H](O)CN2C(=O)[C@@H](NC(=O)CNCCCNc2ccc(S(=O)(=O)NC(=O)c3ccc(N4CCN(CC5=C(c6ccc(Cl)cc6)CC(C)(C)CC5)CC4)cc3Oc3cnc4[nH]ccc4c3)cc2S(=O)(=O)C(F)(F)F)C(C)(C)C)cc1 [I-115] | > 3000 nM | > 30000 nM |  | 
Cc1ncsc1-c1ccc([C@H](C)NC(=O)[C@@H]2C[C@@H](O)CN2C(=O)[C@@H](NC(=O)CCCCCC(=O)N2CCN(CC[C@H](CSc3ccccc3)Nc3ccc(S(=O)(=O)NC(=O)c4ccc(N5CC[C@@H](N(C)C)C5)cc4)cc3S(=O)(=O)C(F)(F)F)CC2)C(C)(C)C)cc1 [I-46] | > 3000 nM | > 30000 nM |  | 
Cc1ncsc1-c1ccc([C@H](C)NC(=O)[C@@H]2C[C@@H](O)CN2C(=O)[C@@H](NC(=O)CCCCCC(=O)N2CCN(Cc3ccc(-c4ccc(Cl)cc4)c([C@@H](O)C4CCN(c5ccc(C(=O)NS(=O)(=O)c6ccc(NCCCN(C)C)c(S(=O)(=O)C(F)(F)F)c6)c(Oc6cnc7[nH]ccc7c6)c5)CC4)c3)CC2)C(C)(C)C)cc1 [I-112] | > 3000 nM | > 30000 nM |  | 
Cc1ncsc1-c1ccc([C@H](C)NC(=O)[C@@H]2C[C@@H](O)CN2C(=O)[C@@H](NC(=O)CCCCCC(=O)N2CCN(Cc3ccc(-c4ccc(Cl)cc4)c([C@H](O)C4CCN(c5ccc(C(=O)NS(=O)(=O)c6ccc(N[C@H](CCN(C)CCO)CSc7ccccc7)c(S(=O)(=O)C(F)(F)F)c6)cc5)CC4)c3)CC2)C(C)(C)C)cc1 [I-30] | > 3000 nM | > 30000 nM |  | 
Cc1ncsc1-c1ccc([C@H](C)NC(=O)[C@@H]2C[C@@H](O)CN2C(=O)[C@@H](NC(=O)CCCCCCN2CCN(CCCNc3ccc(S(=O)(=O)NC(=O)c4ccc(N5CCN(CC6=C(c7ccc(Cl)cc7)CC(C)(C)CC6)CC5)cc4Oc4cnc5[nH]ccc5c4)cc3S(=O)(=O)C(F)(F)F)CC2)C(C)(C)C)cc1 [I-137] | < 100 nM | > 30000 nM |  | 
Cc1ncsc1-c1ccc([C@H](C)NC(=O)[C@@H]2C[C@@H](N)CN2C(=O)[C@@H](NC(=O)C2CCN(CCCNc3ccc(S(=O)(=O)NC(=O)c4ccc(N5CCC([C@@H](O)c6ccccc6-c6ccc(Cl)cc6)CC5)cc4Oc4cnc5[nH]ccc5c4)cc3S(=O)(=O)C(F)(F)F)CC2)C(C)(C)C)cc1 (single isomer, unassigned) [I-91] | > 3000 nM | > 30000 nM |  | 
Cc1ncsc1-c1ccc([C@H](C)NC(=O)[C@@H]2C[C@@H](O)CN2C(=O)[C@@H](NC(=O)CCCCCC(=O)N2CCN(CC[C@H](CSc3ccccc3)Nc3ccc(S(=O)(=O)NC(=O)c4ccc(N5CCC(N(C)C)CC5)cc4)cc3S(=O)(=O)C(F)(F)F)CC2)C(C)(C)C)cc1 [I-48] | > 3000 nM | > 30000 nM |  | 
Cc1ncsc1-c1ccc([C@H](C)NC(=O)[C@@H]2C[C@@H](O)CN2C(=O)[C@@H](NC(=O)CCC2CCN(CCCNc3ccc(S(=O)(=O)NC(=O)c4ccc(N5CCN([C@@H](O)c6ccccc6-c6ccc(Cl)cc6)CC5)cc4Oc4cnc5[nH]ccc5c4)cc3S(=O)(=O)C(F)(F)F)CC2)C(C)(C)C)cc1 [I-128] | > 3000 nM | > 30000 nM |  | 
